Measurements reported in patent US10730874B2 (Shire Human Genetic Therapies, Inc., priority 2018, dated 2020).

Target: human activated kallikrein enzyme (plasma kallikrein) (Homo sapiens (Human), UniProt P03952)
Test: Inhibition of human activated plasma kallikrein, fluorogenic peptide substrate assay, 500 pM enzyme format
Assay type: biochemical
Conditions: 500 pM activated kallikrein enzyme, 300 uM Pro-Phe-Arg-7-amido-4-methylcoumarin substrate, 30 min preincubation, 10 min at RT; read-out: Primary Dose Response Assay: Average EC50
Procedure, shortened: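 Buffer 20 mM Tris pH 7.5, EDTA, NaCl, PEG-400, Triton X-100; 300 uM Pro-Phe-Arg-AMC; enzyme–inhibitor preincubation 30 min RT. Format one: 500 pM kallikrein, 10 min RT reaction; format two: 5 pM kallikrein, 18 h RT reaction. Fluorescence read at 460 nm (380 nm excitation).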

human activated kallikrein enzyme (plasma kallikrein), sequence (P03952 391-638): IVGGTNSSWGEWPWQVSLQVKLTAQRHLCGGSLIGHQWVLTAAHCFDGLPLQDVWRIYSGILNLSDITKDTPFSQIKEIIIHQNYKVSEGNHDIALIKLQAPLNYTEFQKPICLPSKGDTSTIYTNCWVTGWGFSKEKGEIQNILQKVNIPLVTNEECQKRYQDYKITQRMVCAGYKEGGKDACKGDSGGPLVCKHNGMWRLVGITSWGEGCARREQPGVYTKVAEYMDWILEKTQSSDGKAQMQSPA
human activated kallikrein enzyme (plasma kallikrein), sequence (P03952 20-390 partner): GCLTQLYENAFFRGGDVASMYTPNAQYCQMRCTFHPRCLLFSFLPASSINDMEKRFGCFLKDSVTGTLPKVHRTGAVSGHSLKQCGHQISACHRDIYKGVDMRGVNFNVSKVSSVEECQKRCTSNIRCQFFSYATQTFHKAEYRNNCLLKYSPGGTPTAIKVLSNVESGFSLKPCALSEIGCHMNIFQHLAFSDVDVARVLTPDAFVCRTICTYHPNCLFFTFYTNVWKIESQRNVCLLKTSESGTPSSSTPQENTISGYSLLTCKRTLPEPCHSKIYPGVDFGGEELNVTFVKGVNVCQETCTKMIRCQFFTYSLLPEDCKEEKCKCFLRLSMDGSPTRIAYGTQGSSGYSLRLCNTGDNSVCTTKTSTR

Row | Structure (SMILES) | EC50
1 | O=C(NCc1ncn2ccc(Cl)c(F)c12)c1cn(Cc2cn3cc(C4CC4)cc(C4(F)COC4)c3n2)nn1 [Example I-167, N-((7-chloro-8-fluoroimidazo[1,5-a]pyridin-1-yl)methyl)-1-((6-cyclopropyl-8-(3-fluorooxetan-3-yl)imidazo[1,2-a]pyridin-2-yl)methyl)-1H-1,2,3-triazole-4-carboxamide] | < 1 nM
2 | CCOC(=O)C(C)(C)Cc1cc(C2CC2)cn2cc(Cn3cc(C(=O)NCc4ncn5ccc(Cl)cc45)nn3)nc12 [Example I-168, ethyl 3-(2-((4-(((7-chloroimidazo[1,5-a]pyridin-1-yl)methyl)carbamoyl)-1H-1,2,3-triazol-1-yl)methyl)-6-cyclopropylimidazo[1,2-a]pyridin-8-yl)-2,2-dimethylpropanoate] | < 1 nM
3 | O=C(NCc1ncn2ccc(Cl)c(F)c12)c1cn(Cc2cn3cc(C4CC4)cc(C4COC4)c3n2)nn1 [Example I-169, N-((7-chloro-8-fluoroimidazo[1,5-a]pyridin-1-yl)methyl)-1-((6-cyclopropyl-8-(oxetan-3-yl)imidazo[1,2-a]pyridin-2-yl)methyl)-1H-1,2,3-triazole-4-carboxamide] | < 1 nM
4 | O=C(NCc1ncn2ccc(Cl)c(F)c12)c1cn(Cc2cn3cc(C4CC4)cc(F)c3n2)nn1 [Example I-171, N-((7-chloro-8-fluoroimidazo[1,5-a]pyridin-1-yl)methyl)-1-((6-cyclopropyl-8-fluoroimidazo[1,2-a]pyridin-2-yl)methyl)-1H-1,2,3-triazole-4-carboxamide] | < 1 nM
5 | O=C(NCc1ncn2ccc(Cl)c(F)c12)c1cn(Cc2cc3cc(C4CC4)ccn3n2)nn1 [Example I-175, N-((7-chloro-8-fluoroimidazo[1,5-a]pyridin-1-yl)methyl)-1-((5-cyclopropylpyrazolo[1,5-a]pyridin-2-yl)methyl)-1H-1,2,3-triazole-4-carboxamide] | < 1 nM
6 | O=C(NCc1ncn2ccc(Cl)cc12)c1cc(Cc2cn3cc(C4CC4)ccc3n2)on1 [Example I-176, N-((7-chloroimidazo[1,5-a]pyridin-1-yl)methyl)-5-((6-cyclopropylimidazo[1,2-a]pyridin-2-yl)methyl)isoxazole-3-carboxamide] | 1 to 10 nM
7 | O=C(NCc1ncn2ccc(Cl)cc12)c1noc(Cc2cn3cc(C4CC4)ccc3n2)n1 [Example I-177, N-((7-chloroimidazo[1,5-a]pyridin-1-yl)methyl)-5-((6-cyclopropylimidazo[1,2-a]pyridin-2-yl)methyl)-1,2,4-oxadiazole-3-carboxamide] | 1 to 10 nM
8 | O=C(NCc1ncn2ccc(Cl)c(F)c12)c1cn(Cc2nc3cc(C4CC4)ccn3n2)nn1 [Example I-178, N-((7-chloro-8-fluoroimidazo[1,5-a]pyridin-1-yl)methyl)-1-((7-cyclopropyl-[1,2,4]triazolo[1,5-a]pyridin-2-yl)methyl)-1H-1,2,3-triazole-4-carboxamide] | 10 to 100 nM
9 | O=C(NCc1ncn2ccc(Cl)c(F)c12)c1cn(Cc2cn3cc(C4CC4)cc(C(F)(F)F)c3n2)nn1 [Example I-185, N-((7-chloro-8-fluoroimidazo[1,5-a]pyridin-1-yl)methyl)-1-((6-cyclopropyl-8-(trifluoromethyl)imidazo[1,2-a]pyridin-2-yl)methyl)-1H-1,2,3-triazole-4-carboxamide] | < 1 nM
10 | O=C(NCc1ncn2ccc(Cl)c(F)c12)c1cn(Cc2cn3cc(C4CC4)cc(CC4COC4)c3n2)nn1 [Example I-186, N-((7-chloro-8-fluoroimidazo[1,5-a]pyridin-1-yl)methyl)-1-((6-cyclopropyl-8-(oxetan-3-ylmethyl)imidazo[1,2-a]pyridin-2-yl)methyl)-1H-1,2,3-triazole-4-carboxamide] | < 1 nM
11 | O=C(NCc1ncn2ccc(Cl)c(F)c12)c1cn(Cc2cn3cc(Cl)cc(C4COC4)c3n2)nn1 [Example I-187, 1-((6-chloro-8-(oxetan-3-yl)imidazo[1,2-a]pyridin-2-yl)methyl)-N-((7-chloro-8-fluoroimidazo[1,5-a]pyridin-1-yl)methyl)-1H-1,2,3-triazole-4-carboxamide] | < 1 nM
12 | O=C(NCc1ncn2ccc(Cl)c(F)c12)c1cn(Cc2cn3cc(Cl)c(Cl)cc3n2)nn1 [Example I-188, N-((7-chloro-8-fluoroimidazo[1,5-a]pyridin-1-yl)methyl)-1-((6,7-dichloroimidazo[1,2-a]pyridin-2-yl)methyl)-1H-1,2,3-triazole-4-carboxamide] | 1 to 10 nM
13 | O=C(NCc1ncn2ccc(Cl)c(F)c12)c1cn(Cc2cc3cc(C4CC4)cnc3s2)nn1 [Example I-189, N-((7-chloro-8-fluoroimidazo[1,5-a]pyridin-1-yl)methyl)-1-((5-cyclopropylthieno[2,3-b]pyridin-2-yl)methyl)-1H-1,2,3-triazole-4-carboxamide] | < 1 nM
14 | O=C(NCc1ncn2ccc(Cl)cc12)c1nc(Cc2cn3cc(C4CC4)ccc3n2)no1 [Example I-190, N-((7-chloroimidazo[1,5-a]pyridin-1-yl)methyl)-3-((6-cyclopropylimidazo[1,2-a]pyridin-2-yl)methyl)-1,2,4-oxadiazole-5-carboxamide] | < 1 nM
15 | O=C(NCc1ncn2ccc(Cl)c(F)c12)c1cn(Cc2cc3cc(C4CC4)ccc3o2)nn1 [Example I-191, N-((7-chloro-8-fluoroimidazo[1,5-a]pyridin-1-yl)methyl)-1-((5-cyclopropylbenzofuran-2-yl)methyl)-1H-1,2,3-triazole-4-carboxamide] | 1 to 10 nM
16 | O=C(NCc1ncn2ccc(Cl)c(F)c12)c1cn(Cc2cn3cc(C4CC4)cc(C(F)F)c3n2)nn1 [Example I-192, N-((7-chloro-8-fluoroimidazo[1,5-a]pyridin-1-yl)methyl)-1-((6-cyclopropyl-8-(difluoromethyl)imidazo[1,2-a]pyridin-2-yl)methyl)-1H-1,2,3-triazole-4-carboxamide] | < 1 nM

Other lines, results leading:

Row | EC50 | Structure (SMILES)
17 | < 1 nM | O=C(NCc1ncn2ccc(Cl)c(F)c12)c1cn(Cc2cn3cc(C4CC4)cc(C(=O)O)c3n2)nn1 [Example I-166b, 2-((4-(((7-chloro-8-fluoroimidazo[1,5-a]pyridin-1-yl)methyl)carbamoyl)-1H-1,2,3-triazol-1-yl)methyl)-6-cyclopropylimidazo[1,2-a]pyridine-8-carboxylic acid]
18 | < 1 nM | CC(C)(Cc1cc(C2CC2)cn2cc(Cn3cc(C(=O)NCc4ncn5ccc(Cl)cc45)nn3)nc12)C(=O)O [Example I-170, 3-(2-((4-(((7-chloroimidazo[1,5-a]pyridin-1-yl)methyl)carbamoyl)-1H-1,2,3-triazol-1-yl)methyl)-6-cyclopropylimidazo[1,2-a]pyridin-8-yl)-2,2-dimethylpropanoic acid]
19 | < 1 nM | O=C(NCc1ncn2ccc(Cl)c(F)c12)c1cn(Cc2cn3cc(C4CC4)cc(N4CCOCC4)c3n2)nn1 [Example I-173, N-((7-chloro-8-fluoroimidazo[1,5-a]pyridin-1-yl)methyl)-1-((6-cyclopropyl-8-morpholinoimidazo[1,2-a]pyridin-2-yl)methyl)-1H-1,2,3-triazole-4-carboxamide]
20 | < 1 nM | O=C(NCc1ncn2ccc(Cl)c(F)c12)c1cn(Cc2cn3cc(C4CC4)cc(-c4nn[nH]n4)c3n2)nn1 [Example I-174, N-((7-chloro-8-fluoroimidazo[1,5-a]pyridin-1-yl)methyl)-1-((6-cyclopropyl-8-(2H-tetrazol-5-yl)imidazo[1,2-a]pyridin-2-yl)methyl)-1H-1,2,3-triazole-4-carboxamide]
21 | < 1 nM | O=C(NCc1ncn2ccc(Cl)c(F)c12)c1cn(Cc2cn3cc(C4CC4)cc(-n4cnnn4)c3n2)nn1 [Example I-179, N-((7-chloro-8-fluoroimidazo[1,5-a]pyridin-1-yl)methyl)-1-((6-cyclopropyl-8-(1H-tetrazol-1-yl)imidazo[1,2-a]pyridin-2-yl)methyl)-1H-1,2,3-triazole-4-carboxamide]
22 | < 1 nM | O=C(NCc1ncn2ccc(Cl)c(F)c12)c1cn(Cc2cn3cc(C4CC4)cc(-n4cnnc4)c3n2)nn1 [Example I-180, N-((7-chloro-8-fluoroimidazo[1,5-a]pyridin-1-yl)methyl)-1-((6-cyclopropyl-8-(4H-1,2,4-triazol-4-yl)imidazo[1,2-a]pyridin-2-yl)methyl)-1H-1,2,3-triazole-4-carboxamide]
23 | < 1 nM | O=C(NCc1ncn2ccc(Cl)c(F)c12)c1cn(Cc2cn3cc(C4CC4)cc(CO)c3n2)nn1 [Example I-181, N-((7-chloro-8-fluoroimidazo[1,5-a]pyridin-1-yl)methyl)-1-((6-cyclopropyl-8-(hydroxymethyl)imidazo[1,2-a]pyridin-2-yl)methyl)-1H-1,2,3-triazole-4-carboxamide]
24 | < 1 nM | O=Cc1cc(C2CC2)cn2cc(Cn3cc(C(=O)NCc4ncn5ccc(Cl)c(F)c45)nn3)nc12 [Example I-182, N-((7-chloro-8-fluoroimidazo[1,5-a]pyridin-1-yl)methyl)-1-((6-cyclopropyl-8-formylimidazo[1,2-a]pyridin-2-yl)methyl)-1H-1,2,3-triazole-4-carboxamide]
25 | < 1 nM | NC(=O)CCc1cc(C2CC2)cn2cc(Cn3cc(C(=O)NCc4ncn5ccc(Cl)cc45)nn3)nc12 [Example I-183, 1-((8-(3-amino-3-oxopropyl)-6-cyclopropylimidazo[1,2-a]pyridin-2-yl)methyl)-N-((7-chloroimidazo[1,5-a]pyridin-1-yl)methyl)-1H-1,2,3-triazole-4-carboxamide]
26 | < 1 nM | N#CCCc1cc(C2CC2)cn2cc(Cn3cc(C(=O)NCc4ncn5ccc(Cl)cc45)nn3)nc12 [Example I-184, N-((7-chloroimidazo[1,5-a]pyridin-1-yl)methyl)-1-((8-(2-cyanoethyl)-6-cyclopropylimidazo[1,2-a]pyridin-2-yl)methyl)-1H-1,2,3-triazole-4-carboxamide]
